Test results reported in patent US3960877A, “N-monosubstituted-2,3-pyridinedicarboxamides, and related compounds” (priority 1974, dated 1976).

What was measured:
Assay type in all cases: in vivo
Chickweed [1] = assay: Postemergence herbicidal activity, % control of plant growth; conditions: post-emergence, 264 h, 8 lb/acre, about 11 days
Source text: (§1) By the term "postemergence" is meant that the compound is applied to the plant sought to be controlled after it has emerged from the soil surface. This term is also used to describe the application of herbicidally active compounds to soil surface in and around growing plants sought to be controlled for purposes of effecting root absorption by the undesirable plant species.
(§2) In the postemergence test the soil and developing plants were sprayed approximately 2 weeks after the seeds were sown. The compound was applied at the rate of 8 pounds per acre from about a 2 percent by weight solution of the test compound in acetone and/or alcohol. The postemergence herbicidal activity was measured in the same way as the preemergence activity; i.e. visual observation approximately 11 days after spraying, and expressed as the percent control of plant growth.
(§3) **Postemergence test: compound applied at rate of 8 lb/acre

Alfalfa [2] = assay: as above; conditions: Medicago sativa, post-emergence, 264 h, 8 lb/acre, about 11 days
Source text: as §1, §2, §3

Corn [3] = assay: as above; conditions: Zea mays, post-emergence, 264 h, 8 lb/acre, about 11 days
Source text: as §1, §2, §3

Cucumber [4] = assay: as above; conditions: Cucumis sativus, post-emergence, 264 h, 8 lb/acre, about 11 days
Source text: as §1, §2, §3

Pigweed [5] = assay: as above; conditions: Amaranthus retroflexus, post-emergence, 264 h, 8 lb/acre, about 11 days
Source text: as §1, §2, §3

Crabgrass [6] = assay: as above; conditions: Digitaria sanguinalis, post-emergence, 264 h, 8 lb/acre, about 11 days
Source text: as §1, §2, §3

Wild Oats [7] = assay: as above; conditions: Avena fatua, post-emergence, 264 h, 8 lb/acre, about 11 days
Source text: as §1, §2, §3

Lambsquarters [8] = assay: as above; conditions: Chenopodium album, post-emergence, 264 h, 8 lb/acre, about 11 days
Source text: as §1, §2, §3

Yellow Rocket [9] = assay: as above; conditions: post-emergence, 264 h, 8 lb/acre, about 11 days
Source text: as §1, §2, §3

Foxtail [10] = assay: as above; conditions: Setaria, post-emergence, 264 h, 8 lb/acre, about 11 days
Source text: as §1, §2, §3

Snapbeans [11] = assay: as above; conditions: post-emergence, 264 h, 8 lb/acre, about 11 days
Source text: as §1, §2, §3

Velvetleaf [12] = assay: as above; conditions: Abutilon theophrasti, post-emergence, 264 h, 8 lb/acre, about 11 days
Source text: as §1, §2, §3

Cheatgrass [13] = assay: as above; conditions: Bromus tectorum, post-emergence, 264 h, 8 lb/acre, about 11 days
Source text: as §1, §2, §3

Barnyard Grass [14] = assay: as above; conditions: Echinochloa crus-galli, post-emergence, 264 h, 8 lb/acre, about 11 days
Source text: as §1, §2, §3

Curled Dock [15] = assay: as above; conditions: post-emergence, 264 h, 8 lb/acre, about 11 days
Source text: as §1, §2, §3

Johnsongrass [16] = assay: as above; conditions: Sorghum halepense, post-emergence, 264 h, 8 lb/acre, about 11 days
Source text: as §1, §2, §3

Nutgrass [17] = assay: as above; conditions: post-emergence, 264 h, 8 lb/acre, about 11 days
Source text: as §1, §2, §3

Chickweed [18] = assay: Preemergence herbicidal activity, % control of plant growth; conditions: pre-emergence, 504 h, 16 lb/acre, about 3 weeks
Source text: (§4) By "preemergence" is meant that the compound is applied to the soil prior to emergence of the weed species sought to be controlled. This term, as used herein, also means the application of the herbicidal compounds falling within the scope of this disclosure to areas wherein useful or desirable plants are either growing or have been sown, but where the undesirable plants sought to be controlled have not as yet emerged.
(§5) In using the compound, seeds of the types of plants set forth in Table II were sown in fresh soil. In the preemergence test the soil was sprayed with a solution of the test compound immediately after the seeds were planted, and before any noticeable growth developed. The solution was about a 2 percent by weight solution of the compound in acetone and/or alcohol. The compound was applied at the rate of 16 pounds per acre of soil surface.
(§6) Approximately 3 weeks after spray application, the herbicidal activity of the compound was determined by visual observation of the treated area in comparison with untreated control areas. These observations are reported below in Table II wherein the average activity rating is reported as the percent control of plant growth.
(§7) *Preemergence test: compound applied at rate of 16 lb/acre

Alfalfa [19] = assay: as above; conditions: Medicago sativa, pre-emergence, 504 h, 16 lb/acre, about 3 weeks
Source text: as §4, §5, §6, §7

Corn [20] = assay: as above; conditions: Zea mays, pre-emergence, 504 h, 16 lb/acre, about 3 weeks
Source text: as §4, §5, §6, §7

Cucumber [21] = assay: as above; conditions: Cucumis sativus, pre-emergence, 504 h, 16 lb/acre, about 3 weeks
Source text: as §4, §5, §6, §7

Pigweed [22] = assay: as above; conditions: Amaranthus retroflexus, pre-emergence, 504 h, 16 lb/acre, about 3 weeks
Source text: as §4, §5, §6, §7

Crabgrass [23] = assay: as above; conditions: Digitaria sanguinalis, pre-emergence, 504 h, 16 lb/acre, about 3 weeks
Source text: as §4, §5, §6, §7

Wild Oats [24] = assay: as above; conditions: Avena fatua, pre-emergence, 504 h, 16 lb/acre, about 3 weeks
Source text: as §4, §5, §6, §7

Lambsquarters [25] = assay: as above; conditions: Chenopodium album, pre-emergence, 504 h, 16 lb/acre, about 3 weeks
Source text: as §4, §5, §6, §7

Yellow Rocket [26] = assay: as above; conditions: pre-emergence, 504 h, 16 lb/acre, about 3 weeks
Source text: as §4, §5, §6, §7

Foxtail [27] = assay: as above; conditions: Setaria, pre-emergence, 504 h, 16 lb/acre, about 3 weeks
Source text: as §4, §5, §6, §7

Snapbeans [28] = assay: as above; conditions: pre-emergence, 504 h, 16 lb/acre, about 3 weeks
Source text: as §4, §5, §6, §7

Velvetleaf [29] = assay: as above; conditions: Abutilon theophrasti, pre-emergence, 504 h, 16 lb/acre, about 3 weeks
Source text: as §4, §5, §6, §7

Cheatgrass [30] = assay: as above; conditions: Bromus tectorum, pre-emergence, 504 h, 16 lb/acre, about 3 weeks
Source text: as §4, §5, §6, §7

Curled Dock [31] = assay: as above; conditions: pre-emergence, 504 h, 16 lb/acre, about 3 weeks
Source text: as §4, §5, §6, §7

Johnsongrass [32] = assay: as above; conditions: Sorghum halepense, pre-emergence, 504 h, 16 lb/acre, about 3 weeks
Source text: as §4, §5, §6, §7

Nutgrass [33] = assay: as above; conditions: pre-emergence, 504 h, 16 lb/acre, about 3 weeks
Source text: as §4, §5, §6, §7

Barnyard Grass [34] = assay: as above; conditions: Echinochloa crus-galli, pre-emergence, 504 h; barnyard grass; 16 lb/acre; about 3 weeks
Source text: as §4, §5, §6, §7

Row | SMILES | pest or weed control at 8966.8 g/ha (Chickweed [1]) | pest or weed control at 8966.8 g/ha (Alfalfa [2]) | plant injury at 8966.8 g/ha (Corn [3]) | pest or weed control at 8966.8 g/ha (Cucumber [4]) | pest or weed control at 8966.8 g/ha (Crabgrass [6]) | pest or weed control at 8966.8 g/ha (Lambsquarters [8]) | pest or weed control at 8966.8 g/ha (Foxtail [10]) | pest or weed control at 8966.8 g/ha (Snapbeans [11]) | pest or weed control at 8966.8 g/ha (Velvetleaf [12]) | pest or weed control at 8966.8 g/ha (Cheatgrass [13]) | pest or weed control at 8966.8 g/ha (Barnyard Grass [14]) | pest or weed control at 8966.8 g/ha (Curled Dock [15]) | pest or weed control at 8966.8 g/ha (Johnsongrass [16]) | pest or weed control at 8966.8 g/ha (Nutgrass [17]) | pest or weed control at 17933.6 g/ha (Chickweed [18]) | pest or weed control at 17933.6 g/ha (Alfalfa [19]) | plant injury at 17933.6 g/ha (Corn [20]) | pest or weed control at 17933.6 g/ha (Cucumber [21]) | pest or weed control at 17933.6 g/ha (Pigweed [22]) | pest or weed control at 17933.6 g/ha (Crabgrass [23]) | other results
1 | O=c1[nH]c2cccnc2c(=O)n1C1CCCCCCC1 [3-cyclooctyl-pyrido[3,2-d]pyrimidine-2,4(1H,3H)-dione] | 100% | 60% | 0% | 100% | 100% | 100% | 80% | 90% | 100% | 30% | 90% | 100% | 100% | 40% | 100% | 100% | 50% | 90% | 100% | 100% | pest or weed control at 8966.8 g/ha (Pigweed [5]): 100%; pest or weed control at 8966.8 g/ha (Wild Oats [7]): 40%; pest or weed control at 8966.8 g/ha (Yellow Rocket [9]): 100%; pest or weed control at 17933.6 g/ha (Wild Oats [24]): 100%; pest or weed control at 17933.6 g/ha (Lambsquarters [25]): 100%; pest or weed control at 17933.6 g/ha (Yellow Rocket [26]): 100%; pest or weed control at 17933.6 g/ha (Foxtail [27]): 100%; pest or weed control at 17933.6 g/ha (Snapbeans [28]): 100%; pest or weed control at 17933.6 g/ha (Velvetleaf [29]): 100%; pest or weed control at 17933.6 g/ha (Cheatgrass [30]): 100%; pest or weed control at 17933.6 g/ha (Curled Dock [31]): 100%; pest or weed control at 17933.6 g/ha (Johnsongrass [32]): 100%; pest or weed control at 17933.6 g/ha (Nutgrass [33]): 20%
2 | O=c1[nH]c2cccnc2c(=O)n1C1CC1 [3-cyclopropyl pyrido[3,2-d]pyrimidine-2,4(1H,3H)-dione] | 100% | 0% | 0% | 20% | 10% | 100% | 0% | 0% | 0% | 0% | 0% | 10% | 0% | 0% | 100% | 100% | 10% | 100% | 100% | 100% | pest or weed control at 8966.8 g/ha (Pigweed [5]): 90%; pest or weed control at 8966.8 g/ha (Yellow Rocket [9]): 100%; pest or weed control at 17933.6 g/ha (Wild Oats [24]): 80%; pest or weed control at 17933.6 g/ha (Lambsquarters [25]): 100%; pest or weed control at 17933.6 g/ha (Yellow Rocket [26]): 100%; pest or weed control at 17933.6 g/ha (Foxtail [27]): 10%; pest or weed control at 17933.6 g/ha (Snapbeans [28]): 100%; pest or weed control at 17933.6 g/ha (Velvetleaf [29]): 100%; pest or weed control at 17933.6 g/ha (Cheatgrass [30]): 100%; pest or weed control at 17933.6 g/ha (Barnyard Grass [34]): 10%; pest or weed control at 17933.6 g/ha (Curled Dock [31]): 100%; pest or weed control at 17933.6 g/ha (Johnsongrass [32]): 10%; pest or weed control at 17933.6 g/ha (Nutgrass [33]): 0%
3 | O=c1[nH]c2nccnc2c(=O)n1C1CCCCCCC1 [Lumazine, 3-cyclooctyl] | 100% | 10% | 10% | 100% | 100% | 100% | 50% | 100% | 100% | 0% | 90% | 100% | 100% | 10% | 100% | 100% | 30% | 100% | 100% | 90% | pest or weed control at 8966.8 g/ha (Wild Oats [7]): 10%; pest or weed control at 8966.8 g/ha (Yellow Rocket [9]): 100%; pest or weed control at 17933.6 g/ha (Wild Oats [24]): 100%; pest or weed control at 17933.6 g/ha (Lambsquarters [25]): 100%; pest or weed control at 17933.6 g/ha (Yellow Rocket [26]): 100%; pest or weed control at 17933.6 g/ha (Foxtail [27]): 40%; pest or weed control at 17933.6 g/ha (Snapbeans [28]): 100%; pest or weed control at 17933.6 g/ha (Velvetleaf [29]): 100%; pest or weed control at 17933.6 g/ha (Cheatgrass [30]): 100%; pest or weed control at 17933.6 g/ha (Barnyard Grass [34]): 70%; pest or weed control at 17933.6 g/ha (Curled Dock [31]): 100%; pest or weed control at 17933.6 g/ha (Johnsongrass [32]): 90%; pest or weed control at 17933.6 g/ha (Nutgrass [33]): 30%
4 | CC(C)n1c(=O)[nH]c2nccnc2c1=O [Lumazine, 3-isopropyl] | 0% | 0% | 0% | 10% | 0% | 40% | 0% | 30% | 0% | 0% | 0% | 0% | 0% | 0% | 60% | 100% | 10% | 100% | 100% | 70% | pest or weed control at 8966.8 g/ha (Pigweed [5]): 0%; pest or weed control at 8966.8 g/ha (Wild Oats [7]): 0%; pest or weed control at 17933.6 g/ha (Wild Oats [24]): 10%; pest or weed control at 17933.6 g/ha (Lambsquarters [25]): 100%; pest or weed control at 17933.6 g/ha (Yellow Rocket [26]): 100%; pest or weed control at 17933.6 g/ha (Foxtail [27]): 10%; pest or weed control at 17933.6 g/ha (Snapbeans [28]): 90%; pest or weed control at 17933.6 g/ha (Velvetleaf [29]): 100%; pest or weed control at 17933.6 g/ha (Cheatgrass [30]): 10%; pest or weed control at 17933.6 g/ha (Barnyard Grass [34]): 0%; pest or weed control at 17933.6 g/ha (Curled Dock [31]): 100%; pest or weed control at 17933.6 g/ha (Johnsongrass [32]): 70%; pest or weed control at 17933.6 g/ha (Nutgrass [33]): 0%
